Measured values reported in PubChem BioAssay AID248 (DTP/NCI, 2004).
Values joined by “and” are separate entries in the source; they are usually repeats but may differ in a detail not shown here. Equal entries are not always repeated. Toxic doses and inconclusive results are not listed.

Test system: L1210 leukemia ip in BDF1 mice, survival T/C
Assay: NCI In Vivo Anticancer Drug Screen. Data for tumor model L1210 Leukemia (intraperitoneal) in B6D2F1 (BDF1) mice
Conditions: endpoint: mean survival time, higher = longer survival
In short: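 Value reflects the ratio of survival in compound-treated mice to survival in vehicle-treated controls, with both groups carrying the same transplanted tumor.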

[1] = dose: 100.0 mg/kg/injection, schedule: Q01DX001 (ip), vehicle: saline
[2] = dose: 100.0 mg/kg/injection, schedule: Q01DX009 (ip), vehicle: saline with Tween-80
[3] = dose: 200.0 mg/kg/injection, schedule: Q01DX009 (ip), vehicle: saline with Tween-80
[4] = dose: 400.0 mg/kg/injection, schedule: Q01DX009 (ip), vehicle: saline with Tween-80
[5] = dose: 3.12 mg/kg/injection, schedule: Q01DX009 (ip), vehicle: saline
[6] = dose: 6.25 mg/kg/injection, schedule: Q01DX009 (ip), vehicle: saline
[7] = dose: 25.0 mg/kg/injection, schedule: Q01DX009 (ip), vehicle: saline
[8] = dose: 100.0 mg/kg/injection, schedule: Q01DX009 (ip), vehicle: saline
[9] = dose: 200.0 mg/kg/injection, schedule: Q01DX009 (ip), vehicle: saline
[10] = dose: 100.0 mg/kg/injection, schedule: Q04DX003 (ip), vehicle: saline with Tween-80
[11] = dose: 200.0 mg/kg/injection, schedule: Q04DX003 (ip), vehicle: saline with Tween-80
[12] = dose: 400.0 mg/kg/injection, schedule: Q04DX003 (ip), vehicle: saline with Tween-80

Compound: COc1ccc(CCO)c(OC)c1
- T/C (dose: 50.0 mg/kg/injection, schedule: Q01DX001 (ip), vehicle: carboxymethylcellulose (CMC)): 98 % of control
- T/C (dose: 100.0 mg/kg/injection, schedule: Q01DX001 (ip), vehicle: carboxymethylcellulose (CMC)): 100 % of control
- T/C (dose: 200.0 mg/kg/injection, schedule: Q01DX001 (ip), vehicle: carboxymethylcellulose (CMC)): 96 % of control
- T/C (dose: 400.0 mg/kg/injection, schedule: Q01DX001 (ip), vehicle: carboxymethylcellulose (CMC)): 88 % of control

Compound: CCOC(=O)NN(C(=O)OCC)c1c(NNC(C)=O)nc(N)[nH]c1=O
- T/C [1]: 99 % of control
- T/C (dose: 200.0 mg/kg/injection, schedule: Q01DX001 (ip), vehicle: saline): 92 % of control
- T/C (dose: 400.0 mg/kg/injection, schedule: Q01DX001 (ip), vehicle: saline): 99 % of control

Compound: CN1CCN=C1c1ccc(NC(=O)c2ccc(C(=O)Nc3ccc(C4=NCCN4C)cc3)c(N)c2)cc1
- T/C (dose: 3.0 mg/kg/injection, schedule: Q01DX Z (ip), vehicle: carboxymethylcellulose (CMC)): 242 % of control
- T/C (dose: 6.0 mg/kg/injection, schedule: Q01DX Z (ip), vehicle: carboxymethylcellulose (CMC)): 159 % of control
- T/C (dose: 6.0 mg/kg/injection, schedule: Q01DX Z (oral), vehicle: water): 98 % of control
- T/C (dose: 12.0 mg/kg/injection, schedule: Q01DX Z (ip), vehicle: carboxymethylcellulose (CMC)): 103 % of control
- T/C (dose: 12.0 mg/kg/injection, schedule: Q01DX Z (oral), vehicle: water): 95 % of control
- T/C (dose: 24.0 mg/kg/injection, schedule: Q01DX Z (oral), vehicle: water): 98 % of control
- T/C (dose: 48.0 mg/kg/injection, schedule: Q01DX Z (oral), vehicle: water): 101 % of control

Compound: O=C1/C(=N/O)Cc2ccccc21
- T/C (dose: 3.13 mg/kg/injection, schedule: Q01DX009 (ip), vehicle: saline with Tween-80): 91 % of control
- T/C (dose: 6.25 mg/kg/injection, schedule: Q01DX009 (ip), vehicle: saline with Tween-80): 91 % of control
- T/C (dose: 12.5 mg/kg/injection, schedule: Q01DX009 (ip), vehicle: saline with Tween-80): 94 % of control
- T/C (dose: 25.0 mg/kg/injection, schedule: Q04DX003 (ip), vehicle: saline with Tween-80): 102 % of control
- T/C (dose: 50.0 mg/kg/injection, schedule: Q04DX003 (ip), vehicle: saline with Tween-80): 94 % of control

Compound: Cc1cc(C)c(O)c(CN(C)C)c1.[Cu+2]
- T/C (dose: 50.0 mg/kg/injection, schedule: Q01DX001 (ip), vehicle: saline): 98 % of control
- T/C [1]: 98 % of control

Compound: NC(=O)OCC1OC(n2ccc(=O)[nH]c2=O)C(O)C1O (stereo not drawn)
- T/C (dose: 100.0 mg/kg/injection, schedule: Q01DX005 (ip), vehicle: saline): 105 % of control

Compound: CC(=O)OCC1OC(n2cnc3c(C)nc(F)nc32)C(OC(C)=O)C1OC(C)=O (stereo not drawn)
- T/C (dose: 50.0 mg/kg/injection, schedule: Q01DX001 (ip), vehicle: other): 105 % of control
- T/C (dose: 100.0 mg/kg/injection, schedule: Q01DX001 (ip), vehicle: other): 113 % of control
- T/C (dose: 200.0 mg/kg/injection, schedule: Q01DX001 (ip), vehicle: other): 103 % of control
- T/C (dose: 400.0 mg/kg/injection, schedule: Q01DX001 (ip), vehicle: other): 108 % of control

Compound: Cc1[nH]c2ccc(N(C)C)cc2c(=O)c1Cc1c(C)[nH]c2ccc(N(C)C)cc2c1=O
- T/C [2]: 94 % of control
- T/C [3]: 95 % of control
- T/C [4]: 92 % of control

Compound: CCN(CC)C(=O)/C=C\c1ccccc1
- T/C (dose: 50.0 mg/kg/injection, schedule: Q01DX009 (ip), vehicle: saline with Tween-80): 102 % of control
- T/C [2]: 102 % of control
- T/C [3]: 112 % of control

Compound: CC1(C)N=C(N)N=C(N)N1c1cccc(OCCC#N)c1
- T/C (dose: 25.0 mg/kg/injection, schedule: Q04DX003 (ip), vehicle: saline): 112 % of control
- T/C (dose: 50.0 mg/kg/injection, schedule: Q04DX003 (ip), vehicle: saline): 108 % of control
- T/C (dose: 100.0 mg/kg/injection, schedule: Q04DX003 (ip), vehicle: saline): 100 % of control and 104 % of control

Compound: ClC/C=C/C[P+](c1ccccc1)(c1ccccc1)c1ccccc1
- T/C (dose: 1.56 mg/kg/injection, schedule: Q01DX009 (ip), vehicle: saline): 89 % of control
- T/C [5]: 99 % of control
- T/C [6]: 95 % of control

Compound: Cc1nn(C)c(N)c1C#N
- T/C [7]: 97 % of control
- T/C (dose: 50.0 mg/kg/injection, schedule: Q01DX009 (ip), vehicle: saline): 97 % of control
- T/C (dose: 100.0 mg/kg/injection, schedule: Q01DX001 (ip), vehicle: Klucel (hydroxypropylcellulose) (HPC)): 107 % of control
- T/C [8]: 111 % of control
- T/C (dose: 200.0 mg/kg/injection, schedule: Q01DX001 (ip), vehicle: Klucel (hydroxypropylcellulose) (HPC)): 104 % of control
- T/C [9]: 106 % of control
- T/C (dose: 400.0 mg/kg/injection, schedule: Q01DX001 (ip), vehicle: Klucel (hydroxypropylcellulose) (HPC)): 104 % of control
- T/C (dose: 400.0 mg/kg/injection, schedule: Q01DX009 (ip), vehicle: saline): 100 % of control

Compound: CNC1C(O)C(OC2C(N)CC(N)C(OC3OC(CN)C(O)C(O)C3O)C2O)OCC1(C)O (stereo not drawn)
- T/C (dose: 100.0 mg/kg/injection, schedule: Q04DX002 (ip), vehicle: saline): 116 % of control
- T/C (dose: 200.0 mg/kg/injection, schedule: Q04DX002 (ip), vehicle: saline): 100 % of control
- T/C (dose: 400.0 mg/kg/injection, schedule: Q04DX002 (ip), vehicle: saline): 95 % of control

Compound: Clc1onc(-c2ccccc2)c1-c1ccccc1
- T/C [2]: 101 % of control
- T/C [10]: 107 % of control
- T/C [3]: 110 % of control
- T/C [11]: 90 % of control
- T/C [4]: 97 % of control
- T/C [12]: 91 % of control

Compound: CC(=O)c1ccccc1Br
- T/C (dose: 200.0 mg/kg/injection, schedule: Q01DX009 (ip), vehicle: Klucel (hydroxypropylcellulose) (HPC)): 100 % of control
- T/C (dose: 400.0 mg/kg/injection, schedule: Q01DX009 (ip), vehicle: Klucel (hydroxypropylcellulose) (HPC)): 97 % of control

Compound: CCC(=O)NC1=C(N2CC2C)C(=O)C(NC(=O)CC)=C(N2CC2C)C1=O (stereo not drawn)
- T/C [5]: 111 % of control
- T/C [6]: 124 % of control
- T/C (dose: 12.5 mg/kg/injection, schedule: Q01DX009 (ip), vehicle: saline): 153 % of control
- T/C [7]: 177 % of control
- T/C (dose: 35.0 mg/kg/injection, schedule: Q01DX009 (ip), vehicle: Klucel (hydroxypropylcellulose) (HPC)): 103 % of control

Compound: COc1ccccc1C(c1ccccc1OC)N(C)C(C)(C)CO
- T/C (dose: 6.25 mg/kg/injection, schedule: Q01DX009 (ip), vehicle: saline sonified): 102 % of control
- T/C (dose: 12.5 mg/kg/injection, schedule: Q01DX009 (ip), vehicle: saline sonified): 101 % of control
- T/C (dose: 25.0 mg/kg/injection, schedule: Q01DX009 (ip), vehicle: saline sonified): 106 % of control

Compound: O=C(O)C1C2CCC(O2)C1C(=O)Nc1ccccc1 (stereo not drawn)
- T/C (dose: 75.0 mg/kg/injection, schedule: Q01DX001 (ip), vehicle: carboxymethylcellulose (CMC)): 102 % of control
- T/C (dose: 150.0 mg/kg/injection, schedule: Q01DX001 (ip), vehicle: carboxymethylcellulose (CMC)): 102 % of control
- T/C (dose: 300.0 mg/kg/injection, schedule: Q01DX001 (ip), vehicle: carboxymethylcellulose (CMC)): 101 % of control

Compound: CC1(C#N)CCC(CCc2ccccc2)C(=O)C1 (stereo not drawn)
- T/C (dose: 75.0 mg/kg/injection, schedule: Q01DX001 (ip), vehicle: saline): 109 % of control
- T/C (dose: 75.0 mg/kg/injection, schedule: Q01DX009 (ip), vehicle: saline): 99 % of control
- T/C (dose: 150.0 mg/kg/injection, schedule: Q01DX001 (ip), vehicle: saline): 95 % of control
- T/C (dose: 150.0 mg/kg/injection, schedule: Q01DX009 (ip), vehicle: saline): 94 % of control
- T/C (dose: 300.0 mg/kg/injection, schedule: Q01DX001 (ip), vehicle: saline): 92 % of control
- T/C (dose: 300.0 mg/kg/injection, schedule: Q01DX009 (ip), vehicle: saline): 96 % of control

Compound: CON1C(=O)C2(CCCCC2)C2=NOC3C(Br)CCCC231 (stereo not drawn)
- T/C (dose: 100.0 mg/kg/injection, schedule: Q01DX001 (ip), vehicle: saline with Tween-80): 92 % of control
- T/C [10]: 106 % of control
- T/C (dose: 200.0 mg/kg/injection, schedule: Q01DX001 (ip), vehicle: saline with Tween-80): 95 % of control
- T/C [11]: 97 % of control
- T/C (dose: 400.0 mg/kg/injection, schedule: Q01DX001 (ip), vehicle: saline with Tween-80): 95 % of control
- T/C [12]: 95 % of control

Compound: O=C(O)C(CNC(=O)C(F)(F)F)Cc1ccc([N+](=O)[O-])cc1 (stereo not drawn)
- T/C [2]: 120 % of control
- T/C [8]: 88 % of control
- T/C [9]: 103 % of control
